The target in the assay is T1, Human cRaf1 (Homo sapiens, UniProt P04049).
T1 construct: poly-histidine (C); made in house
The assay is described as follows: Raf kinase assay (cRaf1 assay / Raf/MEK cascade assay). The format is biochemical. The note with it: Table 3; read-out: Raf Kinase activity. On the procedure:
The potency of cRaf1 dependent kinase activity was measured using one of two assay formats. The first measured cRaf1 catalyzed phosphorylation of MEK1, the natural substrate for cRaf1. This assay is referred to as the cRaf1 assay. The second measured the ability of cRaf1 to phosphorylate and activate MEK1. This assay is referred to as the Raf/MEK cascade assay.
Human cRaf1 tagged with poly histidine at the carboxyterminus was expressed in a baculovirus expression system and purfied by Ni chelate affinity chromatography. Human MEK1 was expressed in E. coli as a fusion protein with Glutathione-S-transferase, and purified by glutathione sepharose affinity chromatography. […] Reactions contained cRaf1 (20 nM), MEK1 (100-500 nM), [γ-^32 P]ATP ([…]), Mg^2+ (10 mM), MOPS (50 mM, pH 7.5). Reactions were incubated at room temperature for periods of time ranging from 20-120 minutes. Inhibitors were diluted in 100% DMSO prior to addition to the assay. Reactions were terminated with an equal volume of 0.5% phosphoric acid. MEK1 phosphorylation was detected by scintillation counting following collection of protein onto phosphocellulose filters.
Human cRaf1 and MEK1 were purified as described above. A peptide substrate phosphorylated by MEK1 was used as the final phosphoryl group acceptor. […] Assay conditions were the same as those described above except for the following modifications. Reactions contained cRaf1 (1-5 nM), MEK1 (60 nM), and peptide ([…]).

T1 sequence (P04049 whole entry): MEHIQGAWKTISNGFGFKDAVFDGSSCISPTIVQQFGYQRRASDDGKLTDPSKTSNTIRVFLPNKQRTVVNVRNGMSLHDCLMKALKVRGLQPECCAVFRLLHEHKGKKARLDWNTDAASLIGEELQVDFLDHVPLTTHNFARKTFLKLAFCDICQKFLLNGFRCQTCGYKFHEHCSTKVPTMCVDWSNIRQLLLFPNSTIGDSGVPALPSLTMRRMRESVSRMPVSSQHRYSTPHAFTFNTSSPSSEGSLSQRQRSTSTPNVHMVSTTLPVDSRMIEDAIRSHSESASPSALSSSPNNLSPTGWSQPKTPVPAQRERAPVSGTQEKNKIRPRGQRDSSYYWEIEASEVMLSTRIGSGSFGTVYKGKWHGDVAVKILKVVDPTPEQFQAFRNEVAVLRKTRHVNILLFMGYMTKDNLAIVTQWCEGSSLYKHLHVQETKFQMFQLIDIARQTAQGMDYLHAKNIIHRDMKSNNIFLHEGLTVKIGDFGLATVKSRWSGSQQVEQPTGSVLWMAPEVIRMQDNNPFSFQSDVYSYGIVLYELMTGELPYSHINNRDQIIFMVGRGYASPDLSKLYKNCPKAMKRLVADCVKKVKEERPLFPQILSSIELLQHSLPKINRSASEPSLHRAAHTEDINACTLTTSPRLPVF

`O=C1Nc2ccc(C(=O)CN(CCO)CCO)cc2C1=Cc1cc(Br)c(O)c(Br)c1` [Example 74, 5-{2-[Bis-(2-hydroxy-ethyl)-amino]-acetyl}-3-(3,5-dibromo-4-hydroxy-benzylidene)-1,3-dihydro-indol-2-one]: the IC50 is less than 1000 nM.

On to `CN(CCO)CC(=O)c1ccc2c(c1)C(=Cc1cc(Br)c(O)c(Br)c1)C(=O)N2` [Example 75], for which the IC50 was less than 1000 nM.

On to `O=C1Nc2ccc(C(=O)CN3CCSC3)cc2C1=Cc1cc(Br)c(O)c(Br)c1` [Example 76, 3-(3,5-Dibromo-4-hydroxy-benzylidene)-5-(2-(thiazolidin-3-yl)-acetyl)-1,3-dihydro-indol-2-one], for which the IC50 is less than 1000 nM.

Consider `O=C1Nc2ccc(C(=O)C[n+]3ccccc3)cc2C1=Cc1cc(Br)c(O)c(Br)c1` [Example 77, 3-(3,5-Dibromo-4-hydroxy-benzylidene)-5-(2-(N-pyridinium)-acetyl)-1,3-dihydro-indol-2-one chloride], for which the IC50 was less than 1000 nM.

`CC(C)(C)C(=O)OCOc1c(Br)cc(C=C2C(=O)Nc3ccc(I)cc32)cc1Br` [Example 80, 2,2-Dimethyl-propionic acid,2,6-dibromo-4-(5-iodo-2-oxo-1,3-dihydro-indol-3-ylidenemethyl)-phenoxymethyl ester]: the IC50 lay within 10000 to 100000 nM.

For the compound `O=C1Nc2ccc(Br)cc2C1=Cc1cc(Br)c(O)c(Br)c1` [Example 81, 5-Bromo-3-(3,5-dibromo-4-hydroxy-benzylidene)-1,3-dihydro-indol-2-one], the IC50 is less than 1000 nM.

On to `COc1cc(C=C2C(=O)Nc3ccc(Br)cc32)cc(Cl)c1O` [Example 82, 5-Bromo-3-(3-chloro-4-hydroxy-5-methoxy-benzylidene)-1,3-dihydro-indol-2-one], for which the IC50 was less than 1000 nM.

For the compound `CCN(CC)CC(=O)c1ccc2c(c1)C(=Cc1cc(Br)c(O)c(Br)c1)C(=O)N2` [Example 83, 3-(3,5-Dibromo-4-hydroxy-benzylidene)-5-(2-diethylamino-acetyl)-1,3-dihydro-indol-2-one], the IC50 is less than 1000 nM.

`O=C1Nc2c(I)cc(C(=O)CCl)cc2C1=Cc1cc(Br)c(O)c(Br)c1` [Example 86, 5-(2-Chloro-acetyl)-3-(3,5-dibromo-4-hydroxy-benzylidene)-7-iodo-1,3-dihydro-indol-2-one]: the IC50 was less than 1000 nM.

Consider `O=C1Nc2ccc(I)cc2C1=Cc1cc(Br)c(OC(=O)N(CCO)CCO)c(Br)c1` [Example 87, N-[bis-(2-hydroxy-ethyl)]carbamic acid, 2,6-dibromo-4-(5-iodo-2-oxo-1,3-dihydro-indol-3-ylidenemethyl) phenyl ester], for which the IC50 was 10000 to 100000 nM.

Take `O=C1Nc2ccc(C(=O)CCl)cc2C1=Cc1cc(Cl)c(O)c(Cl)c1` [Example 88, 5-(2-Chloro-acetyl)-3-(3,5-dichloro-4-hydroxy-benzylidene)-1,3-dihydro-indol-2-one]: the IC50 is less than 1000 nM.

Consider `CC(=O)c1ccc2c(c1)C(=Cc1cc(Br)c(O)c(Br)c1)C(=O)N2` [Example 89, 5-Acetyl-3-(3,5-dibromo-4-hydroxy-benzylidene)-1,3-dihydro-indol-2-one], for which the IC50 was less than 1000 nM.

`CC(=O)c1ccc2c(c1)C(=Cc1cc(Cl)c(O)c(Cl)c1)C(=O)N2` [Example 90, 5-Acetyl-3-(3,5-dichloro-4-hydroxy-benzylidene)-1,3-dihydro-indol-2-one]: the IC50 is less than 1000 nM.

As to `COc1cccc(C(=O)c2ccc3c(c2)C(=Cc2cc(Br)c(O)c(Br)c2)C(=O)N3)c1` [Example 91, 3-(3,5-Dibromo-4-hydroxy-benzylidene)-5-(3-methoxy-benzoyl)-1,3-dihydro-indol-2-one], the IC50 is less than 1000 nM.

`O=C1Nc2ccc(-c3ccccc3)cc2C1=Cc1cc(Br)c(O)c(Br)c1` [Example 92, 3-(3,5-Dibromo-4-hydroxy-benzylidene)-5-phenyl-1,3-dihydro-indol-2-one]: the IC50 was less than 1000 nM.

In the case of `O=C1Nc2ccc(-c3ccccc3)cc2C1=Cc1cc(Cl)c(O)c(Cl)c1` [Example 93, 3-(3,5-Dichloro-4-hydroxy-benzylidene)-5-phenyl-1,3-dihydro-indol-2-one], the IC50 is less than 1000 nM.

Take `CCNc1nc(-c2ccc3c(c2)C(=Cc2cc(Br)c(O)c(Br)c2)C(=O)N3)cs1` [Example 94, 3-(3,5-Dibromo-4-hydroxy-benzylidene)-5-(2-(ethylamino)-4H-thiazol-4-yl)-1,3-dihydro-indol-2-one]: the IC50 was less than 1000 nM.

For `O=C1Nc2ccc(C(=O)c3ccc([N+](=O)[O-])cc3)cc2C1=Cc1cc(Br)c(O)c(Br)c1` [Example 95, 3-(3,5-Dibromo-4-hydroxy-benzylidene)-5-(4-nitro-benzoyl)-1,3-dihydro-indol-2-one], the IC50 was less than 1000 nM.

Turning to `O=C1Nc2ccc(C(=O)c3cccc([N+](=O)[O-])c3)cc2C1=Cc1cc(Br)c(O)c(Br)c1` [Example 96, 3-(3,5-Dibromo-4-hydroxy-benzylidene)-5-(3-nitro-benzoyl)-1,3-dihydro-indol-2-one], the IC50 is less than 1000 nM.

Consider `O=C1Nc2ccc(C(=NO)c3ccccc3)cc2C1=Cc1cc(Br)c(O)c(Br)c1` [Example 97, 3-(3,5-Dibromo-4-hydroxy-benzylidene)-5-((hydroxyimino)-phenyl-methyl)-1,3-dihydro-indol-2-one], for which the IC50 is less than 1000 nM.

For `CCC(=O)c1ccc2c(c1)C(=Cc1cc(Cl)c(O)c(Cl)c1)C(=O)N2` [Example 98, 3-(3,5-Dichloro-4-hydroxy-benzylidene)-5-propionyl-1,3-dihydro-indol-2-one], the IC50 is less than 1000 nM.

Take `NS(=O)(=O)c1ccc2c(c1)C(=Cc1cc(Cl)c(O)c(Cl)c1)C(=O)N2` [Example 99, 3-(3,5-Dichloro-4-hydroxy-benzylidene)-2-oxo-2,3-dihydro-1H-indole-5-sulfonic acid amide]: the IC50 is less than 1000 nM.

With `O=C1Nc2ccc(S(=O)(=O)N3CCCC3)cc2C1=Cc1cc(Cl)c(O)c(Cl)c1` [Example 100, 3-(3,5-Dichloro-4-hydroxy-benzylidene)-5-(pyrrolidine-1-sulfonyl)-1,3-dihydro-indol-2-one], the IC50 is less than 1000 nM.

In the case of `COc1cc(C=C2C(=O)Nc3ccccc32)cc([N+](=O)[O-])c1O` [Example 101, 3-(4-Hydroxy-3-methoxy-5-nitro-benzylidene)-1,3-dihydro-indol-2-one], the IC50 fell in the range of 1000 to 10000 nM.

Take `COc1cc(C=C2C(=O)Nc3ccccc32)cc(I)c1O` [Example 102, 3-(4-Hydroxy-3-iodo-5-methoxy-benzylidene)-1,3-dihydro-indol-2-one]: the IC50 lay in the range of 1000 to 10000 nM.

Take `CC(=O)Oc1c(Br)cc(C=C2C(=O)Nc3ccc(Cl)cc32)cc1Br` [Example 103, 2,6-Dibromo-4-[(5-chloro-2-oxo-1,2-dihydro-3H-indol-3-ylidene)methyl]phenyl acetate]: the IC50 is 10000 to 100000 nM.

Consider `COc1cc(C=C2C(=O)Nc3ccc(I)cc32)cc([N+](=O)[O-])c1O` [Example 104, 3-(4-Hydroxy-3-methoxy-5-nitro-benzylidene)-5-iodo-1,3-dihydro-indol-2-one], for which the IC50 is less than 1000 nM.

Regarding `O=C1Nc2ccc([N+](=O)[O-])cc2C1=Cc1cc(O)c(O)c(Cl)c1` [Example 105, 3-(3-Chloro-4,5-dihydroxy-benzylidene)-5-nitro-1,3-dihydro-indol-2-one], the IC50 was less than 1000 nM.

For the origin of these results see US6268391A, “Benzylidene-1,3-dihydro-indol-2-one derivatives a receptor tyrosine kinase inhibitors, particularly of Raf kinases” (Glaxo Wellcome Inc., priority 1997, dated 2001).
